Paper PMC5478822, “In Vitro Anticancer Effect of Gedunin on Human Teratocarcinomal (NTERA-2) Cancer Stem-Like Cells” (BioMed Research International, 2017)
Converted amounts (≈) assume the structure as drawn. Where two headings read alike, the source gives them in different places.

Tests used:
NTERA-2 cells [1] = assay: DNA fragmentation analysis; type: cell-based, human; conditions: 48 and 72 h, gedunin 5, 10 and 15 μg/mL
Description: DNA fragmentation analysis was carried out according to previously described methods. NTERA-2 cells (2.5 × 10^4 cells/mL) were grown in cell culture flasks and incubated for 24 h. After incubation, flasks were treated with gedunin dissolved in 0.1% DMSO (5, 10, and 15 μg/mL) and further incubated for 48 and 72 h. Negative control for the experiment was 0.1% DMSO in DMEM medium. At the end of the incubation period, cells were trypsinized and cell pellets were obtained. Cell pellets were then incubated for 60 min at 50°C in a 100 μL of lysis buffer (100 mM Tris–HCl, pH 8, 100 mM NaCl, and 10 mM EDTA). Proteinase K (10 μL, 20 mg/mL) was then added to cell lysates and incubated for 30 min at 50°C. After adding 3 μL of 10 mg/mL RNase, the mixture was incubated for 2 h at 50°C. DNA was extracted in phenol chloroform-isoamyl alcohol and 1 μg of isolated DNA from each sample was subjected to 2.0% of agarose gel electrophoresis and visualized under UV using a gel-doc system (Quantum-ST4 1100/20 M).

[2] = tested on: peripheral blood mononuclear cells; assay: WST-1 cell viability assay; type: cell-based, human; conditions: for IC50: Homo sapiens, PBMC, PBMCs, WST-1 assay; for Cytotoxic effect on normal peripheral blood mononuclear cells: WST-1 cell viability assay
Description: Cytotoxic effects of gedunin and positive control (retinoic acid) on normal human cells were evaluated by using human peripheral blood mononuclear cells. Collected blood was diluted with Hank's Buffered Salt Solution (HBSS) and layered onto Histopaque 1077. Blood was then centrifuged at 1000 rpm for 10 min. After centrifugation, opaque interface which contains mononuclear cells was seperated and washed with phosphate buffered saline (PBS). Cells were then counted and cultured (2 × 10^5 cells/mL) in RPMI medium supplemented with 10% fetal bovine serum (FBS), 50 IU/mL penicillin, and 50 μg/mL streptomycin in 24-well plates. Cells were then treated with different concentrations of gedunin and retinoic acid dissolved in 0.1% DMSO (3.125, 6.25, 12.5, 25, and 50 μg/mL) and incubated for 24, 48, and 72 h. Negative control for the experiment was 0.1% DMSO in RPMI medium. WST-1 cell proliferation assay was then carried out according to manufacturer's instructions to determine the cytotoxic effects.

NTERA-2 cells [3] = assay: Sulforhodamine B (SRB) antiproliferative assay; type: cell-based; conditions: Homo sapiens
Description: The NTERA-2 cells were cultured using Dulbecco's Modified Eagle's Medium (DMEM), supplemented with 10% fetal bovine serum (FBS), 50 IU/mL penicillin, and 50 μg/mL streptomycin. Cells were incubated at 37°C with 5% CO2 and 95% humidity.
Prior to the SRB assay, NTERA-2 cells were grown in a 75 cm[…] flasks. Upon confluency, cells were trypsinized and seeded into 96-well plates (5 × 10^3 cells/well). After 24 h incubation, cells were treated with various concentrations (3.125, 6.25, 12.5, 25, and 50 μg/mL) of gedunin and retinoic acid (positive control) dissolved in 0.1% dimethyl sulfoxide (DMSO) and incubated for 24, 48, and 72 h. Negative control for the experiment was 0.1% DMSO in DMEM medium. Then the cells were fixed with 20 μL of 50% (trichloroacetic acid) TCA and incubated for further 1 h at 4°C. After incubation, cells were washed five times with tap water and stained with 50 μL of 0.4% (w/v) SRB solution. After 20 min of incubation, SRB solution was poured off and unbound dye was removed by washing five times with 1% acetic acid. Bound SRB dye was then solubilized by adding 100 μL of Tris base solution. The plates were shaken for 1 h and absorbance was read at 540 nm OD.

ErbB2 = assay: RT-qPCR gene expression, ErbB2; type: cell-based, human; conditions: NTERA-2 cells, 24 h incubation
Description: (§1) NTERA-2 (2.5 × 10^5 cells/mL) cells were cultured in cell culture flasks and treated with gedunin dissolved in 0.1% DMSO (5 and 10 μg/mL) for 24 h. Negative control for the experiment was 0.1% DMSO in DMEM medium. Following incubation, total RNA was extracted with TRIzol® reagent according to the manufacturer's instructions. For reverse transcription, extracted RNA (2 μg) was mixed with 50 ng of random primers and the total volume was made up to 13.5 μL with ultrapure water. Resulting mixture was incubated at 70°C for 5 min and, after incubation, it was kept on ice for 2 min. Complementary DNA (cDNA) was then synthesized by adding 2 μL from the transcription mixture, 5 μL of 5x MMLV-buffer, 5 μL of 10 mM deoxynucleotide mixture, 25 units of RNasin, and 200 units of MMLV-reverse transcriptase in a reaction mixture of 25 μL adjusted by adding ultrapure water and incubated at 37°C for 60 min. Real-time PCR was carried out in Stratagene Mx3000P using a master mix containing SYBR green (MESA Green qPCR Master Mix Plus for SYBR Assay). Primers used for real-time PCR are given in Table 1 and glyceraldehyde-3-phosphate dehydrogenase (GAPDH) was used as the internal housekeeping gene. […] Results of real-time PCR were analysed using the formula 2^−ΔΔCt.

AKT = assay: RT-qPCR gene expression, AKT; type: cell-based, human; conditions: NTERA-2 cells, 24 h incubation
Description: as §1

Bax = assay: RT-qPCR gene expression, Bax; type: cell-based, human; conditions: NTERA-2 cells, both doses tested, 24 h
Description: as §1

survivin = assay: RT-qPCR gene expression, survivin; type: cell-based, human; conditions: NTERA-2 cells, both doses tested, 24 h
Description: as §1

NTERA-2 cells [4] = assay: Nitrobluetetrazolium reactive oxygen species (ROS) assay; type: cell-based, human; conditions: 24 h after incubation, 2.5, 5 and 10 μg/mL
Description: ROS measurement in gedunin treated NTERA-2 cells was carried out using previously described methods. Cells (2 × 10^3) were cultured in 96-well cell culture plates and incubated for 24 h. After incubation cells were treated with gedunin (2.5, 5, and 10 μg/mL) and incubated for further 24 h. Cells were then incubated with nitrobluetetrazolium (1 mg/mL) for 1 h at 37°C. After the incubation 100 μL of DMSO was added to solubilize blue formazan, plates were shaken for 10 min at room temperature, and the absorbance was read at 620 nm.

HSP90 = assay: RT-qPCR gene expression, HSP90; type: cell-based, human; conditions: NTERA-2 cells, 5 and 10 μg/mL, 24 h
Description: as §1

NTERA-2 cells [5] = assay: TUNEL assay; type: cell-based, human; conditions: NTERA-2 cells, 2.5, 5 and 10 μg/mL, 24 h
Description: Terminal deoxynucleotidyl transferase-mediated dUTP-biotin nick-end labeling (TUNEL) staining was carried out to confirm in situ chromatin fragmentation. Cells cultured on coverslips (2.5 × 10^4 cells/mL) were treated with different concentrations of gedunin dissolved in 0.1% DMSO (2.5, 5, and 10 μg/mL) and incubated for 24 h. Negative control for the experiment was 0.1% DMSO in DMEM medium. TUNEL staining was carried out according to manufacturer's instructions. Briefly, cells were fixed with 4% formaldehyde and permeabilized with 0.2% Triton X-100. Equilibration buffer (100 μL) and TdT reaction mix to label DNA were added and incubated for further 60 min in a humidified chamber. Then coverslips were immersed in 2x SSC buffer for 15 min followed by immersing in 0.3% H2O2 for 3 min. Finally, labeled fragments were incubated with streptavidin horseradish peroxidase and visualized after diaminobenzidine (DAB) color development where dark brown spots confirmed apoptosis.

NTERA-2 cells [6] = assay: Acridine orange/ethidium bromide (AO/EB) staining; type: cell-based, human; conditions: NTERA-2 cells, 2.5, 5 and 10 μg/mL, 24 h
Description: NTERA-2 cells (2.5 × 10^4 cells/mL) were cultured on cell culture treated coverslips and incubated for 24 h. Subsequently, cells were exposed to different concentrations of gedunin dissolved in 0.1% DMSO (2.5, 5, and 10 μg/mL) and incubated for 24 h. Negative control for the experiment was 0.1% DMSO in DMEM medium. After incubation, cells were fixed using 4% formaldehyde in the dark for 10 min. Cells were then washed with PBS and stained with ethidium bromide (100 μg/mL) and acridine orange (100 μg/mL) solutions (1 : 1 v/v). Excess dye was then washed off with PBS and cell morphology was observed using a fluorescence microscope (BX51 TRF, Olympus Corporation, Tokyo, Japan).

p53 = assay: RT-qPCR gene expression, p53; type: cell-based, human; conditions: NTERA-2 cells, 5 and 10 μg/mL, 24 h
Description: as §1

[7] = tested on: caspase 3/7 in NTERA-2 cells; assay: Caspase 3/7 assay; type: cell-based, human; conditions: 24 h
Description: NTERA-2 cells (2.5 × 10^4 cells/mL) were cultured in 96-well cell culture plates and incubated for 24 h. After incubation, cells were treated with gedunin dissolved in 0.1% DMSO (2.5, 5, and 10 μg/mL) and incubated for further 24 h. Negative control for the experiment was 0.1% DMSO in DMEM medium. Caspase 3/7 reagent (100 μL) was then added to each well and incubated for 1 h in dark at 37°C. Luminescence of each well was measured by a plate reader.

Cdc37 = assay: RT-qPCR gene expression, Cdc37; type: cell-based, human; conditions: NTERA-2 cells, 5 and 10 μg/mL, 24 h
Description: as §1

HSF1 = assay: RT-qPCR gene expression, HSF1; type: cell-based, human; conditions: NTERA-2 cells, 24 h incubation
Description: as §1

[8] = 24 h incubation, read-out: IC50 in peripheral blood mononuclear cells, 24 h
[9] = 48 h incubation, read-out: IC50 in peripheral blood mononuclear cells, 48 h
[10] = 72 h incubation, read-out: IC50 in peripheral blood mononuclear cells, 72 h
[11] = NTERA2, 24 h incubation, read-out: IC50 in NTERA-2 cells, 24 h
[12] = NTERA2, 48 h incubation, read-out: IC50 in NTERA-2 cells, 48 h
[13] = NTERA2, 72 h incubation, read-out: IC50 in NTERA-2 cells, 72 h

CC1=C(/C=C/C(C)=C/C=C/C(C)=C/C(=O)O)C(C)(C)CCC1 [Retinoic acid, retinoic acid, reference compound] was tested, and the “DNA fragmentation (laddering pattern)” value (NTERA-2 cells [1]) was “smeared laddering pattern of DNA was observed”, the IC50 [2, 8] was > 100 µg/mL and the IC50 [2, 9] was > 100 µg/mL. For the same compound, the IC50 [2, 10] was > 100 µg/mL, the IC50 (NTERA-2 cells [3]; [11]) was 14.4 µg/mL (≈ 47.8 µM) and the IC50 (NTERA-2 cells [3]; [12]) was 9.17 µg/mL (≈ 30.5 µM). It also gave an IC50 (NTERA-2 cells [3]; [13]) of 6.87 µg/mL (≈ 22.9 µM).
In the case of CC(=O)O[C@@H]1C[C@H]2C(C)(C)C(=O)C=C[C@]2(C)[C@H]2CC[C@@]3(C)[C@H](c4ccoc4)OC(=O)[C@H]4O[C@]43[C@@]21C [Gedunin], the “Expression of ErbB2 (real-time PCR)” value (ErbB2) was “Significant downregulation”, the “Expression of AKT (real-time PCR)” value (AKT) was “Significant downregulation” and the “Expression of Bax (real-time PCR)” value (Bax) was “Upregulation of Bax”. The “Expression of survivin (real-time PCR)” value (survivin) was “downregulation”, the ROS production (NTERA-2 cells [4]) was “increase in ROS production” and the “Expression of HSP90 (real-time PCR)” value (HSP90) was “downregulation”. For the same compound, the TUNEL-positive nuclei (NTERA-2 cells [5]) was “increase in the number of TUNEL-positive nuclei”, the “Morphological changes after AO/EB staining” value (NTERA-2 cells [6]) was “morphological changes of apoptosis” and the “DNA fragmentation (laddering pattern)” value (NTERA-2 cells [1]) was “smeared laddering pattern of DNA was observed”. For the same compound, the IC50 [2, 8] was > 100 µg/mL, the IC50 [2, 9] was > 100 µg/mL and the IC50 [2, 10] was > 100 µg/mL. For the same compound, the “Cytotoxic effect on normal peripheral blood mononuclear cells” value [2] was “minimal effect on PBMCs”, the “Cytotoxic effect on normal peripheral blood mononuclear cells” value ([2]; listed as gedunin) was “not significant” and the “Expression of p53 (real-time PCR)” value (p53) was “upregulation of p53”. The IC50 (NTERA-2 cells [3]; [11]) was 14.6 µg/mL (≈ 30.2 µM), the IC50 (NTERA-2 cells [3]; [12]) was 8.49 µg/mL (≈ 17.6 µM) and the IC50 (NTERA-2 cells [3]; [13]) was 6.55 µg/mL (≈ 13.6 µM). For the same compound, the “Fold change in caspase 3/7 activity” value ([7]; 2.5 μg/mL) was 1.08 fold, the “Fold change in caspase 3/7 activity” value ([7]; 5 μg/mL) was 1.2 fold and the “Fold change in caspase 3/7 activity” value ([7]; 10 μg/mL) was 1.41 fold. For the same compound, the “Expression of Cdc37 (real-time PCR)” value (Cdc37) was “downregulation” and the “Expression of HSF1 (real-time PCR)” value (HSF1) was “Significant downregulation”.
For CC1=CC(=O)C(C(C)C)=CC1=O [thymoquinone], the “DNA fragmentation (laddering pattern)” value (NTERA-2 cells [1]) was “smeared laddering pattern of DNA was observed”.
